Measured values published in US20260069588A1, “VEPDEGESTRANT FOR USE IN TREATING CANCER” (Arvinas Operation, Inc., priority 2022, published 2026).
Converted amounts (≈) assume the structure as drawn. Like-named read-outs stand apart in the source and are kept apart here. Marks after values point to notes of the source that are not given here.

What was measured:
[1] = molecular target: hERG channel (Homo sapiens, UniProt Q12809); test: hERG channel inhibition; format: biochemical
Method: The pivotal nonclinical safety studies were conducted in the US in accordance with GLP regulations per the US 21 CFR Part 58. These include the cardiovascular safety pharmacology study in dogs, the pivotal 28-day and 3-month repeat-dose toxicology studies in rats and dogs, and an in vitro phototoxicity assay. The bacterial reverse mutation assay, in vitro micronucleus assay, and 2 in vitro hERG studies were conducted in the UK in accordance with the UK Good Laboratory Practice Monitoring Authority, MHRA: Good Laboratory Practice Regulations 1999, Statutory Instrument 1999 No. 3106 as amended by the Good Laboratory Practice (Codification Amendments Etc.) Regulations, 2004, Statutory Instrument 2004, No. 994; and the OECD GLP and OECD Principles on Good Laboratory Practice ENV/MC/CHEM (98) 17 (Revised in 1997, Issued January 1998).accordance with the OECD Principles of Good Laboratory Practice and as accepted by Regulatory Authorities throughout the European Union, United States of America (FDA), Japan (MHLW), and other countries that are signatories to the OECD Mutual Acceptance of Data Agreement.

[2] = Single-dose oral TK and tolerability study in beagle dogs; format: in vivo; details: dog
Method: A lead-in single-dose TK and tolerability study conducted prior to the telemetry study indicated approximately dose-proportional increase in exposure between 200 and 400 mg/kg in the dog.

[3] = test system: MCF7 cells; test: Live-cell imaging proliferation, MCF7; format: cell-based; details: Homo sapiens, 144 h; MCF7, up to 6 days
From the text: Full growth of the cells over this time period is shown by extent of cell confluence with dimethyl sulfoxide (DMSO).

[4] = 7-day oral dose range finding toxicity study in rats; format: in vivo; details: rat, up to 300 mg/kg/day, 7 days
From the text: Noteworthy findings were changes in the female reproductive organs, including in the ovaries (minimal to moderate increased size of tertiary follicles, retained corpora lutea, and minimal to moderate interstitial cell hypertrophy), uterus (atrophy) and vagina (mucosa atrophy).

[5] = molecular target: T1, SALL4 (Homo sapiens, UniProt Q9UJQ4); test: Cereblon neomorphic substrate degradation, SALL4; format: cell-based
T1 construct: host or cells: two unnamed cell lines
From the text: (§1) These drugs bind to cereblon and promote the degradation of novel (neomorphic) substrates.

[6] = molecular target: Ikaros (Homo sapiens, UniProt Q13422); test: Cereblon neomorphic substrate degradation, Ikaros; format: cell-based; details: in vitro
From the text: as §1

[7] = human, in vivo
Method: (§2) Study Design: In the FIH Study: Part A is a Phase I monotherapy dose escalation, and Part B is a Phase 2 monotherapy expansion at 2 RP2D doses (200 mg QD, 500 mg QD).

[8] = clinical; details: human, in vivo; for AUC: AUCtau
Method: as §2

[9] = Solubility in phosphate buffer; format: physicochemical; details: aqueous buffer; phosphate buffer at pH 7.4
[10] = molecular target: progesterone receptor (Homo sapiens, UniProt P06401); test: Secondary pharmacodynamics binding, progesterone receptor; details: in vitro
[11] = 3-month GLP oral toxicity study in dogs; format: in vivo, dog; details: for Cmax / AUC(0-t): plasma, po, Day 91; for AUC(0-t): read-out: AUC0-24
Method: Male and female Beagle dogs, 4/sex/group, were administered 0 (vehicle), 10, 30, or 90 mg/kg/day. Assessment of toxicity was based on clinical observations, BWs, food consumption, ophthalmology, ECG evaluations, and clinical and anatomic pathology.

[12] = Beagle, dog, female dogs, 90 mg/kg/day
[13] = Beagle, dog, male dogs, 90 mg/kg/day

T1 sequence (Q96SW2 whole entry partner, species assumed): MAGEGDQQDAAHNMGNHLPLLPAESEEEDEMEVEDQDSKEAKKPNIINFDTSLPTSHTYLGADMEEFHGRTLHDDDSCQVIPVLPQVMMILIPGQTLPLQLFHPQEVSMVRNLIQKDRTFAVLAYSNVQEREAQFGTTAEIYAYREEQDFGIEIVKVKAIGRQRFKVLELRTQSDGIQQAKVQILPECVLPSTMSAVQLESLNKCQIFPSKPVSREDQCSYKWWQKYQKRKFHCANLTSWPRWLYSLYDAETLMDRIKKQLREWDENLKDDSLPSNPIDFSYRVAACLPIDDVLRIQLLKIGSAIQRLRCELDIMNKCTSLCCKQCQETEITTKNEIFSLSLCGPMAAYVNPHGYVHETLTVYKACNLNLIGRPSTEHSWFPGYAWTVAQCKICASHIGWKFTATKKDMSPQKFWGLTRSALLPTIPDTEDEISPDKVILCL
T1 sequence (Q16531 whole entry partner, species assumed): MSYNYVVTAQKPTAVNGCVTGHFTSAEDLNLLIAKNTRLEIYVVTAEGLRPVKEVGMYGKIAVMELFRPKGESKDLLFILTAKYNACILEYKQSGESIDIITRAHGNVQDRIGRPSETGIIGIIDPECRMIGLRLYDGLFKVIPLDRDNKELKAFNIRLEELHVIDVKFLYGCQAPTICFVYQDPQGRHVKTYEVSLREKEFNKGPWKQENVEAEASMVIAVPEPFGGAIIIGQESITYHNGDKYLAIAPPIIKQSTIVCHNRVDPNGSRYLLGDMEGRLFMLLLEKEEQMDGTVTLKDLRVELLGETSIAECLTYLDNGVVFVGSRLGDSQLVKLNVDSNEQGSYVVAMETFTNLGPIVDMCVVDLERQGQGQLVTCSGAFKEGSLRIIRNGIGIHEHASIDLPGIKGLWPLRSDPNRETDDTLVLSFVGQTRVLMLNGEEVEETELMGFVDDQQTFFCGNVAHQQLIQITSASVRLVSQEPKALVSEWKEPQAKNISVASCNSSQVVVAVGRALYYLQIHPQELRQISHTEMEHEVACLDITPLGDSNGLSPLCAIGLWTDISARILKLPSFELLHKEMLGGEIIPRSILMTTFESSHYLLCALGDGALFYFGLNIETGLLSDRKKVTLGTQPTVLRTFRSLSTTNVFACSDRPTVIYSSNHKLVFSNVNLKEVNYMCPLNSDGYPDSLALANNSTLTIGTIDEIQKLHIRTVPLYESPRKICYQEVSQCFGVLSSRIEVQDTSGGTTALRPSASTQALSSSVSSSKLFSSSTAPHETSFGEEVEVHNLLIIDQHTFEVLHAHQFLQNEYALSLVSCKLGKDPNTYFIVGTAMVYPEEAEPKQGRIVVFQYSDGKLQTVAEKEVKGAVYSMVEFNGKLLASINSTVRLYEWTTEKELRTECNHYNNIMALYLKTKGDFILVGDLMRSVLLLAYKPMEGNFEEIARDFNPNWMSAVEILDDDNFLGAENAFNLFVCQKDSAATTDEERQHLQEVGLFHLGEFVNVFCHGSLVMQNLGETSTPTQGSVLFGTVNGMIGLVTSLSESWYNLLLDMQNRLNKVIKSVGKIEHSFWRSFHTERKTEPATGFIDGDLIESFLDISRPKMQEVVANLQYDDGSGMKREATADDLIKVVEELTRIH
T1 sequence (Q9UJQ4 whole entry, species assumed): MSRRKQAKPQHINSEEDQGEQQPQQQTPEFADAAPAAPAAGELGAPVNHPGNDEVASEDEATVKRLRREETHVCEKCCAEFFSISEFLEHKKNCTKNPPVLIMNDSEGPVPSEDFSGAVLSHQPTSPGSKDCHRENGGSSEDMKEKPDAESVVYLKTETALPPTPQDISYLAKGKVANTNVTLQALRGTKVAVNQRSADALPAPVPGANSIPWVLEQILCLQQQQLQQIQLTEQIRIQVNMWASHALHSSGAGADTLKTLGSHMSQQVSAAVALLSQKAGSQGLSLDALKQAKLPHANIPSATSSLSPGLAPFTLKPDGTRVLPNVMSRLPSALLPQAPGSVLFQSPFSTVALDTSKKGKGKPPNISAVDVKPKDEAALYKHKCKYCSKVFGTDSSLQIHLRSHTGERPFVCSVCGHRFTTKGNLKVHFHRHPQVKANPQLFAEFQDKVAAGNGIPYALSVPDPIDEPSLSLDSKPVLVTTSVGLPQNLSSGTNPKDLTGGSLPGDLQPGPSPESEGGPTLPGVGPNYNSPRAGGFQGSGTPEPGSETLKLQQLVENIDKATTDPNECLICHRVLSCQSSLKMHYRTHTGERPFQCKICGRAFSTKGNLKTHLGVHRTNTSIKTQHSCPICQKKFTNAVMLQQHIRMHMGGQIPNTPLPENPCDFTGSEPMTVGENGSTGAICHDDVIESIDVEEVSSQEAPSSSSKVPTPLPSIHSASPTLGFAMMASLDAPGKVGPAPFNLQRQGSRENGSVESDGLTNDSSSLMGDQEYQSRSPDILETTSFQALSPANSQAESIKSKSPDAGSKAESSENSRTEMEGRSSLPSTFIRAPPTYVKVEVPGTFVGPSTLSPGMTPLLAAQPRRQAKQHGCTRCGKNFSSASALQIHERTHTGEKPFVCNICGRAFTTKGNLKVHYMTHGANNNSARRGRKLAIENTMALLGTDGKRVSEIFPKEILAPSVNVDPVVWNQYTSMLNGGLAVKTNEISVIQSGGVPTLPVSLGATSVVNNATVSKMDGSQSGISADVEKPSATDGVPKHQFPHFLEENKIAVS
Chain of hERG channel (Q12809 whole entry): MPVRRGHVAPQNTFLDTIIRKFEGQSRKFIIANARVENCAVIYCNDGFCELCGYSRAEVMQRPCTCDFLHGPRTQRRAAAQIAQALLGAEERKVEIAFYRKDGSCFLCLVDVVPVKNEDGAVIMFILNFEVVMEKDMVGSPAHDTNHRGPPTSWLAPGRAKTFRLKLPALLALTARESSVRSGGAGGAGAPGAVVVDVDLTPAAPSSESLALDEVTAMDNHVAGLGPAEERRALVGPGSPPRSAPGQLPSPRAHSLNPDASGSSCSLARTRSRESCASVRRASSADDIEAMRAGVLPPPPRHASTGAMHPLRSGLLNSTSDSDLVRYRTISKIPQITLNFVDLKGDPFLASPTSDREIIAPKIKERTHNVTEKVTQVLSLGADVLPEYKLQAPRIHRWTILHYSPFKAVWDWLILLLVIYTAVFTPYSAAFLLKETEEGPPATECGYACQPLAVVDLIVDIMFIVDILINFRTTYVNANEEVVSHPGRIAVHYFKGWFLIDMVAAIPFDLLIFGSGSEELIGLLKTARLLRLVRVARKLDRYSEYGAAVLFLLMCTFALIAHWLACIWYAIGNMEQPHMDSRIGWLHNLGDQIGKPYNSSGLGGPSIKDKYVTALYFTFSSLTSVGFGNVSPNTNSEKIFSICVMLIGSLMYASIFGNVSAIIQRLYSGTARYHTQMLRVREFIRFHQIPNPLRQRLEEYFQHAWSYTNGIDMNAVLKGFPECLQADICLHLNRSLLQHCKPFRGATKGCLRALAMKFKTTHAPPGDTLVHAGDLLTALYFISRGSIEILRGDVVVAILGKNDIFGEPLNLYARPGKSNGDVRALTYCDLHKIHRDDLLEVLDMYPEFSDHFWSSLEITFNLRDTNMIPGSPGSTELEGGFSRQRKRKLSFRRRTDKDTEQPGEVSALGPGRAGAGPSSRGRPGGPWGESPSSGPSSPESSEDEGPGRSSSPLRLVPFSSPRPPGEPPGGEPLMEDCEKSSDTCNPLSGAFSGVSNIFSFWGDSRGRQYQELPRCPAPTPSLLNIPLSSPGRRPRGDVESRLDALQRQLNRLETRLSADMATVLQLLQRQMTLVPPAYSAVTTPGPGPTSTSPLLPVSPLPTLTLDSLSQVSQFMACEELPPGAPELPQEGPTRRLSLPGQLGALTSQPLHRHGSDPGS
Chain of progesterone receptor (P06401 whole entry, species assumed): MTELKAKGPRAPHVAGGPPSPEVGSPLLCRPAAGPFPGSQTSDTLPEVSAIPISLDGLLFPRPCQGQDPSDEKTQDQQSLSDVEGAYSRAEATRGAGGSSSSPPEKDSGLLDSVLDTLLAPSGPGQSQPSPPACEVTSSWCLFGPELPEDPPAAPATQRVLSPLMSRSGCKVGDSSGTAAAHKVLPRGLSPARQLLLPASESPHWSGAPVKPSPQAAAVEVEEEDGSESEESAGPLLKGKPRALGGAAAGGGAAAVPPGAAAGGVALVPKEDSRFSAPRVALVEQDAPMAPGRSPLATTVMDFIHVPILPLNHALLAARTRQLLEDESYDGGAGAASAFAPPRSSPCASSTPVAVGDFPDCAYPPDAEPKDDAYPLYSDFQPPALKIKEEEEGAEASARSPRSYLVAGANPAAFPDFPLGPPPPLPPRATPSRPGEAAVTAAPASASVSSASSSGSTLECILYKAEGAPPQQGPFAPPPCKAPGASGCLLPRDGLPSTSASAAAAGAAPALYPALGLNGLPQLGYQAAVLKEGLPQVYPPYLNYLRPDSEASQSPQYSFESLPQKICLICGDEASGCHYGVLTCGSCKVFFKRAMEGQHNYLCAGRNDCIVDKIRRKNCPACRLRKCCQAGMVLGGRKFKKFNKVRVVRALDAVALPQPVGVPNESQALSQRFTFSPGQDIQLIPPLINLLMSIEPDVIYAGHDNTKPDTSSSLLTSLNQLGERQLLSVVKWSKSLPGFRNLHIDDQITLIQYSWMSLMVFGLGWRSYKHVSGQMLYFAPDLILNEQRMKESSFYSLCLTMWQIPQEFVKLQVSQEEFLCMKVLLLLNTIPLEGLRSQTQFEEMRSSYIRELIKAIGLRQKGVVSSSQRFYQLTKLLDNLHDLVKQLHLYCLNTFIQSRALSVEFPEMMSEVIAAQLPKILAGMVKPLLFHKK

O=C1CC[C@H](N2Cc3cc(N4CCN(CC5CCN(c6ccc([C@@H]7c8ccc(O)cc8CC[C@@H]7c7ccccc7)cc6)CC5)CC4)ccc3C2=O)C(=O)N1 [Compound A, (S)-3-(5-(4-((1-(4-((1R,2S)-6-hydroxy-2-phenyl-1,2,3,4-tetrahydronaphthalen-1-yl)phenyl)piperidin-4-yl)methyl)piperazin-1-yl)-1-oxoisoindolin-2-yl)piperidine-2,6-dione]
IC50 [1]: > 25100 nM
unbound Cmax margin to hERG IC50 ([1]; recommended Phase 3 dose of 200 mg): approximately 170 ×
Cmax ([2]; both sexes, beagle, in vivo, 400 mg/kg single oral, sexes combined): 25000 ng/mL
AUC ([2]; both sexes, beagle, in vivo, 400 mg/kg single oral, sexes combined, read-out: mean AUC24): 349000 ng·h/mL
tolerability ([2]; 200 or 400 mg/kg single oral, fecal changes, emesis at 400): tolerated
GI50 [3]: 4 nM
tolerability [4]: well tolerated
degradation of SALL4 ([5]; a different cell line): no SALL4 degradation
degradation of SALL4 ([5]; one cell line): some degradation activity
degradation of Ikaros [6]: did not degrade
CL/F ([7]; 30 mg): 7.4 L/h
Rac (AUCtau) ([7]; 30 mg): 2.6
CL/F ([7]; 60 mg): 8.2 L/h
Rac (AUCtau) ([7]; 60 mg): 2.6
Tmax ([7]; 60 mg): 4.2 h
CL/F ([7]; 100 mg): 11.2 L/h
Rac (AUCtau) ([7]; 100 mg): 2.1
CL/F ([7]; 120 mg): 8.8 L/h
Cmax ([7]; 120 mg): 799 ng/mL
Rac (AUCtau) ([7]; 120 mg): 2.2
CL/F ([7]; 180 mg): 9.4 L/h
Cmax ([7]; 180 mg): 1062 ng/mL
Rac (AUCtau) ([7]; 180 mg): 2.3
Tmax ([7]; 180 mg): 5.0 h
AUCtau ([7]; 200 mg): 15459 ng·h/mL
CL/F ([7]; 200 mg): 12.9 L/h
Cmax ([7]; 200 mg): 866 ng/mL
Rac (AUCtau) ([7]; 200 mg): 1.9
Tmax ([7]; 200 mg): 5.0 h
CL/F ([7]; 250 mg): 12.2 L/h
CL/F ([7]; 360 mg): 13.9 L/h
Rac (AUCtau) ([7]; 360 mg): 2.2
CL/F ([7]; 500 mg): 14.5 L/h
Cmax ([7]; 500 mg): 1883 ng/mL
Rac (AUCtau) ([7]; 500 mg): 2.2
AUCtau ([7]; 700 mg): 26572 ^e ng·h/mL
Cmax ([7]; 700 mg): 1530 ^e ng/mL
Rac (AUCtau) ([7]; 700 mg): 1, 4 ^g
Tmax ([7]; 700 mg): 6.0 g·h
half-life ([8]; 30 mg): 31 h
Tmax ([8]; 30 mg, Tmax): 4 h
half-life ([8]; 60 mg): 33 h
Tmax ([8]; 60 mg, Tmax): 6 h
half-life ([8]; 100 mg): 29 h
Tmax ([8]; 100 mg, Tmax): 5.8 h
half-life ([8]; 120 mg): 27 h
Cmax ([8]; 120 mg): 404 ng/mL
Tmax ([8]; 120 mg, Tmax): 5.9 h
half-life ([8]; 180 mg): 26 h
Cmax ([8]; 180 mg): 555 ng/mL
Tmax ([8]; 180 mg, Tmax): 6 h
half-life ([8]; 200 mg): 23 h
AUC ([8]; 200 mg): 9110 ng·h/mL
Cmax ([8]; 200 mg): 534 ng/mL
Tmax ([8]; 200 mg, Tmax): 5.8 h
AUC(0-t) ([8]; 250 mg, AUCtau (AUC0-8)): 2920 ng·h/mL
AUC(0-t) ([8]; 250 mg, AUCtau (AUC0-12)): 20600 ng·h/mL
Tmax ([8]; 250 mg, Tmax): 6.9 h
half-life ([8]; 360 mg): 28 h
Tmax ([8]; 360 mg, Tmax): 5.8 h
half-life ([8]; 500 mg): 28 h
Cmax ([8]; 500 mg): 1050 ng/mL
Tmax ([8]; 500 mg, Tmax): 4.9 h
half-life ([8]; 700 mg): 12.4 h
AUC ([8]; 700 mg): 19600 ng·h/mL
Cmax ([8]; 700 mg): 1450 ng/mL
Tmax ([8]; 700 mg, Tmax): 5.8 h
Tmax ([8]; Tmax): 4.1 h
Tmax ([8]; median Tmax across dose levels): 4 to 7 h
solubility [9]: 1.5 µg/mL (≈ 2.07 µM)
binding [10]: bound
NOAEL at 3 months ([11]; Beagle, dog, in vivo, oral, male dogs, 3 months): 90 mg/kg/day
Cmax [11, 12]: 4250 ng/mL
AUC(0-t) [11, 12]: 73100 ng·h/mL
Cmax [11, 13]: 4880 ng/mL
AUC(0-t) [11, 13]: 83500 ng·h/mL
ECG intervals ([11]; dog, 90 mg/kg/day, Day 85): nonadverse increases in QT-, QTc-, and PR-intervals
NOAEL ([11]; female dogs, 3 months): A NOAEL was not identified
